# Laboratory results published in patent US7238659B2, “Reducing axon degeneration with proteasome inhibitors” (Children's Medical Center Corporation, priority 2003, dated 2007).
# Square brackets hold non-standard residues; d marks the D form. Peptide text beside a SMILES is read from it. * marks the point of attachment. Sta = CC(C)C[C@H](N)[C@@H](O)CC(=O)O; Isovaleryl = CC(C)CC(=O)*; Nle = CCCC[C@H](N)C(=O)O; Nva = CCC[C@H](N)C(=O)O; Cbz = O=C(OCc1ccccc1)*; CH2F = FC*
# Experiments:
# [1] = system: corticospinal tract (CST) after midthoracic spinal cord transection with human Schwann cell grafts; assay: Corticospinal Tract (CST) Regeneration Assay; format: in vivo, adult nude rat; parameters: key: dramatically reduce (+++ or ++++) axonal degeneration; dramatically reduce (+++ or ++++) axonal degeneration; settings: inhibitor in fibrin glue; thirty-five days after grafting
# Description: Corticospinal Tract (CST) Regeneration Assay. Proteasome inhibitors are assayed for their ability to improve corticospinal tract (CST) regeneration following thoracic spinal cord injury by promoting CST regeneration into human Schwann cell grafts in the methods of Guest et al. (1997, supra). […] Inhibitors are incorporated into a fibrin glue and placed in the same region. Anterograde tracing from the motor cortex using the dextran amine tracers, Fluororuby (FR) and biotinylated dextran amine (BDA), are performed. Thirty-five days after grafting, the CST response is evaluated qualitatively by looking for reduced degeneration of CST fibers in or beyond grafts and quantitatively by constructing camera lucida composites to determine the sprouting index (SI), the position of the maximum termination density (MTD) rostral to the GFAP-defined host/graft interface, and the longitudinal spread (LS) of bulbous end terminals. The latter two measures provide information about axonal die-back.
# [2] = system: transected axons from cultured sympathetic neurons; assay: Wallerian degeneration of transected axons in cultured sympathetic ganglia; format: cell-based, rat; parameters: development of the axonal beading appearance / disintegration of transected axons into debris: dose or concentration left out as unconfirmed; settings: for protective effect on Wallerian degeneration: added to sympathetic cultures prior to axotomy, EGTA 2 mM; for time post-axotomy until degeneration is shown: untreated transected axons: early signs 8 hr post-axotomy
# Source text: Inhibiting the ubiquitin-proteasome pathway delays Wallerian degeneration. Wallerian degeneration in most transected mammalian nerve fibers is a complex sequence that entails degradation of the axon, changes in the ensheathing and glial cells, alterations in the blood-tissue barriers, and responses of macrophage-lineage cells (reviewed by Griffin et al., 1995). To study the underlying mechanisms involved in the axon degeneration process, we have used the degeneration of transected axons from cultured primary neurons as models (Buckmaster et al., 1995; George et al., 1995; Wang et al., 2001). In cultured sympathetic ganglia derived from postnatal day 3 (p3) rats, soma-deprived axons undergo a typical degenerative process (herein, George et al., 1995; Wang et al., 2001). The severed axons first appear normal for 6-10 hr, depending upon the duration of culturing prior to axotomy. For sympathetic ganglia that have been cultured for 5 days, the severed axons begin to develop such signs of early degeneration as focal swelling and beading approximately 8 hrs after the axons had been separated from their cell bodies. In most cases, the axons would be completely degenerated and detached after 12-16 hr post-axotomy. Similar degenerative processes were also observed in other types of cultured neurons, such as chicken dorsal root ganglion neurons and retinal ganglion cells.
# We examined whether UPS is involved in axotomy-triggered Wallerian degeneration by using specific pharmacological inhibitors. It is known that for UPS to degrade a specific substrate protein, the sequential action of three enzymes, including a ubiquitin activating enzyme (E1), a ubiquitin conjugating enzyme (E2), and a ubiquitin ligase (E3), is required to covalently link ubiquitin to the substrate. Poly-ubiquitinated proteins are then targeted for degradation by the 26S proteasome, which is composed of two 19S proteasome regulatory particles and a 20S core. Substrate ubiquitination may also be reversed by ubiquitin proteases (reviewed by Weissman, 2001). In spite of the existence of multiple E2 and E3 molecules, the final and common step in degrading polyubiquitinated protein substrates is through the 26S proteasome machinery. Consistent with previous evidence for the existence and functioning of the UPS in axons (Campbell and Holt, 2001, 2003), components of UPS machinery, such as subunit C2 of the proteasome 20S, were found in both intact and transected axons from sympathetic neurons. Thus, to perturb UPS activity we used two mechanistically different proteasome inhibitors, MG132, a peptide-based reversible proteasome inhibitor (Rock et al., 1994), and lactacystin, a […] irreversible proteasome inhibitor (Fenteany et al., 1995), both of which had been extensively used to inhibit UPS activity in many different cell types including cultured neurons (Campbell and Holt, 2001, 2003).
# 24 hr post-axotomy when most of the axon debris has detached from the culture surface in control cultures, proteasome inhibitor-treated explants still retained many axons with some degeneration signs, which remained up to 36 hr post-axotomy.
# 8 hr post-axotomy, approximately 90% of axons from control HSV-infected explants, and only about 40% of axons from HSV-UBP2-infected ones, developed a beading appearance. However, the protective effects of UBP2 overexpression were less robust than those of the proteasome inhibitors, presumably due to the low expression levels of UBP2.
# As previous studies have implicated calpains, a class of calcium-dependent proteases, in Wallerian degeneration (George et al., 1995; Finn et al., 2000), we also examined the contribution of calpain activity in our assays with specific calpain inhibitors such as ALLN (Finn et al., 2000). […] 16 hr after axotomy when most of the transected axons from control cultures degenerated into debris, there were still remaining axon fibers in ALLN-treated cultures.
# [3] = system: NGF-deprived sympathetic neurons; assay: Neurite degeneration in NGF-deprived sympathetic neurons; format: cell-based; settings: 36 hr after NGF deprivation; for death of cell bodies after NGF deprivation: Hoechst 33258 nuclei staining
# Source text: Proteasome inhibitors also delay neurite degeneration in NGF-deprived sympathetic neurons. In addition to transected axons, axons from neurons that have been deprived of their physiological trophic factors may also undergo a Wallerian-like degeneration process (reviewed by Raff et al., 2002). If the distal part of an axon of a cultured sympathetic neuron is locally deprived of NGF, that part of the axon degenerates while the rest of the cell and axon survives (Campenot, 1982). Moreover, it has been shown that such an NGF deprivation-triggered axon degeneration is delayed in the sympathetic neurons from Wld^s mice (Deckwerth and Johnson, 1994). We thus decided to investigate whether UPS is also involved in NGF deprivation-triggered axon degeneration. Consistent with previous studies (for example, Deckwerth and Johnson, 1994), 36 hr after NGF deprivation, all of the cultured sympathetic neurons underwent a typical apoptosis program with death of cell bodies as detected by nuclei staining with Hoechst 33258 (a few normally stained nuclei are glial cells) and degeneration of axons as indicated by both morphological criteria and immunostaining.
# [4] = system: microtubules and neurofilaments of transected axons; assay: Breakdown of axonal cytoskeleton (microtubules, neurofilaments) in transected axons, immunostaining and Western blotting; format: cell-based, rat
# Source text: Microtubule destabilization at the initiation stage of Wallerian degeneration in vitro. We next examined which cellular events might correlate with the involvement of UPS and calpains in Wallerian degeneration. We monitored the integrity of different subcellular organelles in the transected axons by both immunocytochemistry and membrane labeling. […] At the protein level, we observed a corresponding cleavage of the neurofilament subunits, neurofilament 160 (NF-160) and neurofilament 68 (NF68) as detected by Western blotting.
# Apart from these axonal markers, however, the earliest detectable change appears to occur in the microtubules of transected axons. […] After 12 hr post-axotomy, the stained signals of fragmented microtubule structures weakened gradually and were replaced by many spheroid bodies in severed axons. By 16 hr after axotomy, almost all of the detected signals were spheroid bodies along the tracts of original axons. Even 16 hrs after axotomy when the majority of the axonal NF160 and NF68 has been degraded, most of the tubulin proteins still remained intact and the protein level remained stable according to Western blotting. To provide additional biochemical evidence for such an axotomy-elicited microtubule destabilization in transected axons at early stages of Wallerian degeneration, we separated monomeric (soluble, S) and polymerized (pellet, P) tubulins from transected axons and measured the depolymerization ratio (S/[S+P]) at different time points.
# UPS and calpains mediate the breakdown of axonal cytoskeleton components. To explore the link between these cellular and molecular changes during Wallerian degeneration, we next examined whether proteasome inhibitors, calpain inhibitors, and EGTA affect neurofilaments and microtubules in transected axons. […] On the other hand, ALLN only delayed neurofilament degradation, but not the fragmentation of microtubules.
# [5] = system: transected optic nerve; assay: Wallerian degeneration of transected optic nerve in vivo (gelfoam at lesion site); parameters: species or system mice; settings: gelfoam pre-soaked with 50 mM MG132; 3 days post-axotomy; immunostaining
# Source text: MG132 slows down Wallerian degeneration of transected optic nerve in vivo. To assess whether these observations from in vitro culture experiments hold true in vivo, we first performed immunostaining experiments to examine the alterations of microtubules and neurofilaments in transected optic nerves. […] In optic nerves 3 days after axotomy when an antibody against NF160 still detected many linear neurofilament fibers, the antibody against a neuron specific b-tubulin detected largely spheroid bodies, reminiscent of the microtubule changes observed in vitro 16 hr post-axotomy. […] To examine whether proteasome inhibitors would retard Wallerian degeneration in vivo, we applied gelfoams pre-soaked with vehicle (PBS) or MG132 to the lesion sites and examined the transected optic nerves 3 days post-axotomy by immunostaining. Our experimental procedures were adapted from Meyer et al. (1994). In brief, adult mice were anesthetized by an intraperitoneal injection of ketamine (100 mg/kg) and xylazine (20 mg/kg). An incision was then made in the conjunctiva above the left orbit. The optic nerve was exposed under an operating microscope, and its dura opened longitudinally. […] At determined days after nerve crush, the animals were given a lethal dose of anesthesia and perfused through the heart with cold saline plus heparin followed by 4% paraformaldehyde. […]
# [6] = system: axons of cultured neurons; assay: Axon degeneration elicited by calcium ionophore A23187 or ionomycin; format: cell-based
# [7] = system: axons of cultured neurons; assay: Induction of axon degeneration by cytoskeleton-disrupting agent; format: cell-based
# Source text: Thus, among the three major polymer components of the axon cytoskeleton, microtubules play a particularly important role in maintaining the integrity of axons. Consistent is the observation of microtubule disruption as the earliest detectable change during the physiological process of axon pruning in Drosophila metamorphosis (Watts et al., 2003).
compound,measurement,setting,value
"CC(C)C[C@H](NC(=O)[C@H](CC(C)C)NC(=O)[C@H](CC(C)C)NC(=O)OCc1ccccc1)B(O)O [MG-262, Z-Leu-Leu-Leu-B(OH)2]",Reduce Degeneration,[1],+++
"CCC[C@@H](C=O)NC(=O)[C@H](CC(C)C)NC(=O)[C@H](CC(C)C)NC(=O)OCc1ccccc1 [MG-115, Carbobenzoxy-L-leucyl-L-leucyl-L-norvalinal] (Cbz-Leu-Leu-[Nva]-aldehyde)",Reduce Degeneration,[1],++++
COC(=O)C[C@H](NC(=O)[C@H](C)NC(=O)[C@@H](NC(=O)OCc1ccccc1)C(C)C)C(=O)CF [Z-VAD-fmk] (Cbz-Val-Ala-Asp(OMe)-CH2F),protective effect on Wallerian degeneration,[2],did not result in any detectable protective effect
same,axon (neurite) degeneration after NGF deprivation,[3],efficiently prevented
same,death of cell bodies after NGF deprivation,[3],efficiently prevented
"CC(C)C[C@H](NC(=O)[C@H](Cc1ccccc1)NC(=O)c1cnccn1)B(O)O [PS-341, bortezomib]",Reduce Degeneration,[1],++++
CC(=O)N[C@@H](CSC(=O)[C@]1([C@@H](O)C(C)C)NC(=O)[C@H](C)[C@@H]1O)C(=O)O [Lactacystin],degeneration of all examined subcellular markers (destabilization of microtubules and cleavage of neurofilaments),[4]; transected axons,profoundly retarded
same,time post-axotomy until degeneration is shown,[2],16 h
same,Reduce Degeneration,[1],+++
"CC(C)C[C@@H](C=O)NC(=O)[C@H](CC(C)C)NC(=O)[C@H](CC(C)C)NC(=O)OCc1ccccc1 [MG-132, Carbobenzoxy-L-leucyl-L-leucyl-L-leucinal] (Cbz-Leu-Leu-Leu-aldehyde)",degeneration of all examined subcellular markers (destabilization of microtubules and cleavage of neurofilaments),[4]; transected axons,profoundly retarded
same,time post-axotomy until degeneration is shown,[2],16 h
same,"breakdown of microtubules, neurofilaments and axolemma in transected optic nerves",[5],significantly slowed
same,Reduce Degeneration,[1],+++
same,axon (neurite) degeneration after NGF deprivation,[3],the majority of the axons were still intact
same,death of cell bodies after NGF deprivation,[3],still showed clear apoptotic staining
"CC(C)C(O)C12NC(=O)C(C)(C)C1OC2=O (stereo not drawn) [α-Methylomuralide, α-Methyl clasto-Lactacystin β-Lactone]",Reduce Degeneration,[1],++++
O=C(O)CN(CCOCCOCCN(CC(=O)O)CC(=O)O)CC(=O)O [EGTA],degeneration of all examined subcellular markers (destabilization of microtubules and cleavage of neurofilaments),[4]; transected axons,profoundly retarded
same,axon degeneration elicited by calcium ionophore A23187 or ionomycin,[6],blocked
same,protective effect on Wallerian degeneration,[2],much stronger protective effect
"CCCC[C@@H](C=O)NC(=O)[C@H](CC(C)C)NC(=O)[C@H](CC(C)C)NC(C)=O [MG-101, Ac-Leu-Leu-Nle-CHO] (Ac-Leu-Leu-[Nle]-aldehyde)",calpain-dependent degradation of neurofilaments NF160 and NF68,[4]; Western blotting,completely prevented
same,neurofilament degradation,[4]; transected axons,only delayed
same,development of the axonal beading appearance,[2],did not affect
same,disintegration of transected axons into debris,[2]; 16 hr after axotomy,slightly delayed
same,Reduce Degeneration,[1],+++
C/C1=C/C(=O)O[C@@H]2C[C@@H](CC[C@H](C)/C=C\CC1)O[C@@](O)([C@@H]1CSC(=O)N1)C2 [latrunculin B],induction of axon degeneration,[7],failed to induce axon degeneration
CC(C)CC(=O)N[C@H](C(=O)N[C@H](C(=O)N[C@@H](CC(C)C)[C@@H](O)CC(=O)N[C@@H](C)C(=O)N[C@@H](CC(C)C)[C@@H](O)CC(=O)O)C(C)C)C(C)C [pepstatin.A] (Isovaleryl-VV[Sta]A[Sta]-OH),protective effect on Wallerian degeneration,[2],did not result in any detectable protective effect
"CC(C)[C@H](O)[C@@]12NC(=O)[C@H](C)[C@@H]1OC2=O [PS-519, clasto-Lactacystin β-Lactone]",Reduce Degeneration,[1],++++
